What all share (type): biochemical
For one experiment, the target named is T1, PDE1B (Homo sapiens, UniProt Q01064).
T1 construct: full-length human PDE1B (NP_000915.1); His (C); made in house; host or cells: Sf9 (pIEX4)
Kind of experiment: Ca2+-calmodulin dependent PDE enzyme assay (SPA), PDE1B. To be noted: [3H]cAMP 47 nM; enzyme 0.074 nM; Ca2+/calmodulin buffer pH 7.5; read-out: IC50 (nM) of Example 1, PDE 1B. From the text: (§1) The nucleotide sequences encoding full-length human PDE1A (NP_001003683.1), PDE1C (NP_005011.1), PDE5A (NP_001074.2), PDE7B (NP_061818.1) and PDE9A (NP_002597.1) are inserted into pFastBac1 (Invitrogen) vector with an N-terminal HIS tag. The nucleotide sequences encoding full-length human PDE4D (NP_006194.2) and catalytic domain (residue 641-1141) of PDE3A (NP_000912.3) are inserted into pFastBac1 (Invitrogen) vector with a C-terminal HIS tag. The nucleotide sequences encoding full-length human PDE8A (NP_002596.1) and PDE11A (AAI12394.1) are inserted into pFastBac1 (Invitrogen) vector with an N-terminal Flag tag. The nucleotide sequences encoding full-length human PDE10A (AAD32595.1) are inserted into pFastBac1 (Invitrogen) vector with a C-terminal Flag-His tag. The nucleotide sequences encoding full-length human PDE6A (NP_000431.2) and PDE6B (AAH00249.1) are inserted into pFastBacDual (Invitrogen) vector with an N-terminal HIS tag and N-terminal Flag tag, respectively, for production of PDE6A/6B dimer. […]
(§2) All 3′, 5′ cyclic nucleotide phosphodiesterase (PDE) enzyme activities are measured with a radiometric enzyme assay based on SPA detection system (scintillation proximity assay). […] Samples are read 12 hours later in a MICROBETA™ TRILUX® Counter. […] IC50 values are calculated by plotting the normalized data vs. log [compound] and fitting the data using a four parameter logistic equation. […]

A further experiment has as its target T2, PDE6AB (PDE6A/6B dimer) (Homo sapiens, UniProt P16499+P35913).
T2 construct: full-length human PDE6A (NP_000431.2); full-length human PDE6A (NP_000431.2) and PDE6B (AAH00249.1); His (N); Flag (N); made in house; host or cells: Sf9 (baculovirus, pFastBacDual)
Kind of experiment: PDE enzyme assay using [3H]cGMP as substrate, PDE6AB. To be noted: [3H]cGMP 80 nM; enzyme 5 nM; read-out: IC50 (nM) of Example 1, PDE 6AB.
Source text: as §1, with “tag.” for “tag. The nucleotide sequences encoding full-length human PDE6A (NP_000431.2) and PDE6B (AAH00249.1) are inserted into pFastBacDual (Invitrogen) vector with an N-terminal HIS tag and N-terminal Flag tag, respectively, for production of PDE6A/6B dimer.”
(§3) All 3′, 5′ cyclic nucleotide phosphodiesterase (PDE) enzyme activities are measured with a radiometric enzyme assay based on SPA detection system (scintillation proximity assay). […] Samples are read 12 hours later in a MICROBETA™ TRILUX® Counter. […] IC50 values are calculated by plotting the normalized data vs. log [compound] and fitting the data using a four parameter logistic equation.
(§4) The following phosphodiesterase activities are measured using [^3H]cGMP as reaction substrate: PDE2A, PDE5A, PDE6A/6B, PDE9A, PDE10A and PDE11A. […]

For a further experiment, the target named is T3, PDE10A (Homo sapiens, UniProt Q9Y233).
T3 construct: full-length human PDE10A (AAD32595.1); Flag-His (C); made in house; host or cells: Sf9 (baculovirus, pFastBac1)
The experiment in a line: PDE enzyme assay using [3H]cGMP as substrate, PDE10A. The following applies: [3H]cGMP 80 nM; enzyme 0.03 nM; read-out: IC50 (nM) of Example 1, PDE10A.
Source text: as §1, with “tag.” for “tag. The nucleotide sequences encoding full-length human PDE6A (NP_000431.2) and PDE6B (AAH00249.1) are inserted into pFastBacDual (Invitrogen) vector with an N-terminal HIS tag and N-terminal Flag tag, respectively, for production of PDE6A/6B dimer.”
as §3, §4

For a further experiment, the target named is T4, PDE5A (Homo sapiens, UniProt O76074).
T4 construct: full-length human PDE1A (NP_001003683.1), PDE1C (NP_005011.1), PDE5A (NP_001074.2); His (N); made in house; host or cells: Sf9 (baculovirus, pFastBac1)
The experiment in a line: PDE enzyme assay using [3H]cGMP as substrate, PDE5A. To be noted: [3H]cGMP 80 nM; enzyme 0.002 nM; read-out: IC50 (nM) of Example 1, PDE5A.
Source text: as §1, with “tag.” for “tag. The nucleotide sequences encoding full-length human PDE6A (NP_000431.2) and PDE6B (AAH00249.1) are inserted into pFastBacDual (Invitrogen) vector with an N-terminal HIS tag and N-terminal Flag tag, respectively, for production of PDE6A/6B dimer.”
as §3, §4

The target in the next experiment is T5, PDE3A (catalytic domain) (Homo sapiens, UniProt Q14432).
T5 construct: catalytic domain (residue 641-1141) of PDE3A (NP_000912.3); His (C); made in house; host or cells: Sf9 (baculovirus, pFastBac1)
Kind of experiment: PDE enzyme assay using [3H]cAMP as substrate, PDE3A. The following applies: [3H]cAMP 47 nM, enzyme 0.008 nM, read-out: IC50 (nM) of Example 1, PDE3A.
Source text: as §1, with “tag.” for “tag. The nucleotide sequences encoding full-length human PDE6A (NP_000431.2) and PDE6B (AAH00249.1) are inserted into pFastBacDual (Invitrogen) vector with an N-terminal HIS tag and N-terminal Flag tag, respectively, for production of PDE6A/6B dimer.”
as §3
(§5) The following phosphodiesterase activities are measured using [^3H]cAMP as reaction substrate: PDE3A (catalytic domain), PDE4D, PDE7B and PDE8A. […]

The next experiment deals with T6, PDE1A (Homo sapiens, UniProt P54750).
T6 construct: full-length human PDE1A (NP_001003683.1); His (N); made in house; host or cells: Sf9 (baculovirus, pFastBac1)
Kind of experiment: Ca2+-calmodulin dependent PDE enzyme assay (SPA), PDE1A. The following applies: [3H]cAMP 47 nM; enzyme 0.25 nM; Ca2+/calmodulin buffer pH 7.5; read-out: IC50 (nM) of Example 1, PDE 1A.
Source text: as §1, §2

For the next experiment, the target named is T7, PDE7B (Homo sapiens, UniProt Q9NP56).
T7 construct: full-length human PDE1A (NP_001003683.1), PDE1C (NP_005011.1), PDE5A (NP_001074.2), PDE7B (NP_061818.1); His (N); made in house; host or cells: Sf9 (baculovirus, pFastBac1)
Kind of experiment: PDE enzyme assay using [3H]cAMP as substrate, PDE7B. To be noted: [3H]cAMP 47 nM; enzyme 0.5 nM; read-out: IC50 (nM) of Example 1, PDE7B.
Source text: as §1, with “tag.” for “tag. The nucleotide sequences encoding full-length human PDE6A (NP_000431.2) and PDE6B (AAH00249.1) are inserted into pFastBacDual (Invitrogen) vector with an N-terminal HIS tag and N-terminal Flag tag, respectively, for production of PDE6A/6B dimer.”
as §3, §5

For another experiment, the target named is T8, PDE2A (Homo sapiens, UniProt O00408).
T8 construct: full-length human PDE1B (NP_000915.1) and PDE2A (NP_002590.1); His (C); made in house; host or cells: Sf9 (pIEX4)
The experiment in a line: PDE enzyme assay using [3H]cGMP as substrate, PDE2A. To be noted: [3H]cGMP 80 nM; enzyme 0.2 nM; read-out: IC50 (nM) of Example 1, PDE2A.
Source text: as §1, with “tag.” for “tag. The nucleotide sequences encoding full-length human PDE6A (NP_000431.2) and PDE6B (AAH00249.1) are inserted into pFastBacDual (Invitrogen) vector with an N-terminal HIS tag and N-terminal Flag tag, respectively, for production of PDE6A/6B dimer.”
as §3, §4

The next experiment addresses T9, PDE11A (Homo sapiens, UniProt Q9HCR9).
T9 construct: full-length human PDE8A (NP_002596.1) and PDE11A (AAI12394.1); Flag (N); made in house; host or cells: Sf9 (baculovirus, pFastBac1)
Kind of experiment: PDE enzyme assay using [3H]cGMP as substrate, PDE11A. To be noted: [3H]cGMP 80 nM; enzyme 0.03 nM; read-out: IC50 (nM) of Example 1, PDE11A.
Source text: as §1, with “tag.” for “tag. The nucleotide sequences encoding full-length human PDE6A (NP_000431.2) and PDE6B (AAH00249.1) are inserted into pFastBacDual (Invitrogen) vector with an N-terminal HIS tag and N-terminal Flag tag, respectively, for production of PDE6A/6B dimer.”
as §3, §4

For another experiment, the target named is T10, PDE9A (Homo sapiens, UniProt O76083).
T10 construct: full-length human PDE1A (NP_001003683.1), PDE1C (NP_005011.1), PDE5A (NP_001074.2), PDE7B (NP_061818.1) and PDE9A (NP_002597.1); His (N); made in house; host or cells: Sf9 (baculovirus, pFastBac1)
Kind of experiment: PDE enzyme assay using [3H]cGMP as substrate, PDE9A. The following applies: [3H]cGMP 20 nM; enzyme 1 nM; read-out: IC50 (nM) of Example 1, PDE9A.
Source text: as §1, with “tag.” for “tag. The nucleotide sequences encoding full-length human PDE6A (NP_000431.2) and PDE6B (AAH00249.1) are inserted into pFastBacDual (Invitrogen) vector with an N-terminal HIS tag and N-terminal Flag tag, respectively, for production of PDE6A/6B dimer.”
as §3, §4

The target in a further experiment is T11, PDE1C (Homo sapiens, UniProt Q14123).
T11 construct: full-length human PDE1A (NP_001003683.1), PDE1C (NP_005011.1); His (N); made in house; host or cells: Sf9 (baculovirus, pFastBac1)
Kind of experiment: Ca2+-calmodulin dependent PDE enzyme assay (SPA), PDE1C. To be noted: [3H]cAMP 47 nM; enzyme 0.0012 nM; Ca2+/calmodulin buffer pH 7.5; read-out: IC50 (nM) of Example 1, PDE 1C.
Source text: as §1, §2

For another experiment, the target named is T12, PDE4D (Homo sapiens, UniProt Q08499).
T12 construct: full-length human PDE4D (NP_006194.2); His (C); made in house; host or cells: Sf9 (baculovirus, pFastBac1)
Kind of experiment: PDE enzyme assay using [3H]cAMP as substrate, PDE4D. To be noted: [3H]cAMP 47 nM; enzyme 0.021 nM; read-out: IC50 (nM) of Example 1, PDE4D.
Source text: as §1, with “tag.” for “tag. The nucleotide sequences encoding full-length human PDE6A (NP_000431.2) and PDE6B (AAH00249.1) are inserted into pFastBacDual (Invitrogen) vector with an N-terminal HIS tag and N-terminal Flag tag, respectively, for production of PDE6A/6B dimer.”
as §3, §5

Another experiment addresses T13, PDE8A (Homo sapiens, UniProt O60658).
T13 construct: full-length human PDE8A (NP_002596.1); Flag (N); made in house; host or cells: Sf9 (baculovirus, pFastBac1)
Kind of experiment: PDE enzyme assay using [3H]cAMP as substrate, PDE8A. The following applies: [3H]cAMP 47 nM; enzyme 0.06 nM; read-out: IC50 (nM) of Example 1, PDE8A.
Source text: as §1, with “tag.” for “tag. The nucleotide sequences encoding full-length human PDE6A (NP_000431.2) and PDE6B (AAH00249.1) are inserted into pFastBacDual (Invitrogen) vector with an N-terminal HIS tag and N-terminal Flag tag, respectively, for production of PDE6A/6B dimer.”
as §3, §5

Molecules are shown by their SMILES.

As a reminder, the IC50 is the concentration that inhibits the measured activity by half.

T12 sequence (Q08499 1-673 isoform Q08499-2): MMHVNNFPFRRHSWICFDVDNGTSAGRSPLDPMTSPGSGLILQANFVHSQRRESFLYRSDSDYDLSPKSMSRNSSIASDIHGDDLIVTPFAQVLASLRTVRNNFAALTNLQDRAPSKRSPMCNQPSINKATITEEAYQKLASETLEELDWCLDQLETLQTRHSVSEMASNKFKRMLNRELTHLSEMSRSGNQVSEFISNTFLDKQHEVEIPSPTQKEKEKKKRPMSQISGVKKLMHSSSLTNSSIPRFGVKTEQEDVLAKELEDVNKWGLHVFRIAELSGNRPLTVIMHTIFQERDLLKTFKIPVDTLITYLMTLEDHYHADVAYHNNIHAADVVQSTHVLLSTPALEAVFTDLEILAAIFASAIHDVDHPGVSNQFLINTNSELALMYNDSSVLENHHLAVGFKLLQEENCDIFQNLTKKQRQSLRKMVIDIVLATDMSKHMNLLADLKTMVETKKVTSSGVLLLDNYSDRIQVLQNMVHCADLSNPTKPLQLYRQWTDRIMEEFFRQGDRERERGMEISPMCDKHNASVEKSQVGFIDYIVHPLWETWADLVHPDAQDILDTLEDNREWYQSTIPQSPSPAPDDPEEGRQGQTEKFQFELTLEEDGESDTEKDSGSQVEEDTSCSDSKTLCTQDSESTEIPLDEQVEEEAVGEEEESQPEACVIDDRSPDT
T9 sequence (Q9HCR9 whole entry): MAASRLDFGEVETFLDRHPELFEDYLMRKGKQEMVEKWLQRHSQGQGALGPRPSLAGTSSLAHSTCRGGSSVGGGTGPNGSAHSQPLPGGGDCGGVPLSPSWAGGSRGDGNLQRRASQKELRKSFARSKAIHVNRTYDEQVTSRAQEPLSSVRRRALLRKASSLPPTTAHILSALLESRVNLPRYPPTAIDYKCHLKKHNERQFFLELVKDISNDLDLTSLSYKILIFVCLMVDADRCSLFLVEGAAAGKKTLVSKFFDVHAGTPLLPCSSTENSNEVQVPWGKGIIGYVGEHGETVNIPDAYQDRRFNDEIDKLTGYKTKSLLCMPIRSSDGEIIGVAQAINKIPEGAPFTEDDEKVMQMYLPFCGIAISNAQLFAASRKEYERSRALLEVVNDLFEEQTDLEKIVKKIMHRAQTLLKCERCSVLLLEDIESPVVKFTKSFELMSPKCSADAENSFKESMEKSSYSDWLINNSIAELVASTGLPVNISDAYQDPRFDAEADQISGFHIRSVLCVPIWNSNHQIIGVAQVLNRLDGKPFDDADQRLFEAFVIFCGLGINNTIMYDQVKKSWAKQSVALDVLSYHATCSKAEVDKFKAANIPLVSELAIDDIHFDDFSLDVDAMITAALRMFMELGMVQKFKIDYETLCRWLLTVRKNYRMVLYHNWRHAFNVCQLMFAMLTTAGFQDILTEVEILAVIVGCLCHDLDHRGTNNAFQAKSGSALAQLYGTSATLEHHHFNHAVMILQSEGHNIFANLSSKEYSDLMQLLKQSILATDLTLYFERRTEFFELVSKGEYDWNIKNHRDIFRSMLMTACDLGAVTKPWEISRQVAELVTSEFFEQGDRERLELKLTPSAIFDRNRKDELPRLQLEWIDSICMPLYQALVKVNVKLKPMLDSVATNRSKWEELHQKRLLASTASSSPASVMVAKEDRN
T2 sequence (P16499 whole entry): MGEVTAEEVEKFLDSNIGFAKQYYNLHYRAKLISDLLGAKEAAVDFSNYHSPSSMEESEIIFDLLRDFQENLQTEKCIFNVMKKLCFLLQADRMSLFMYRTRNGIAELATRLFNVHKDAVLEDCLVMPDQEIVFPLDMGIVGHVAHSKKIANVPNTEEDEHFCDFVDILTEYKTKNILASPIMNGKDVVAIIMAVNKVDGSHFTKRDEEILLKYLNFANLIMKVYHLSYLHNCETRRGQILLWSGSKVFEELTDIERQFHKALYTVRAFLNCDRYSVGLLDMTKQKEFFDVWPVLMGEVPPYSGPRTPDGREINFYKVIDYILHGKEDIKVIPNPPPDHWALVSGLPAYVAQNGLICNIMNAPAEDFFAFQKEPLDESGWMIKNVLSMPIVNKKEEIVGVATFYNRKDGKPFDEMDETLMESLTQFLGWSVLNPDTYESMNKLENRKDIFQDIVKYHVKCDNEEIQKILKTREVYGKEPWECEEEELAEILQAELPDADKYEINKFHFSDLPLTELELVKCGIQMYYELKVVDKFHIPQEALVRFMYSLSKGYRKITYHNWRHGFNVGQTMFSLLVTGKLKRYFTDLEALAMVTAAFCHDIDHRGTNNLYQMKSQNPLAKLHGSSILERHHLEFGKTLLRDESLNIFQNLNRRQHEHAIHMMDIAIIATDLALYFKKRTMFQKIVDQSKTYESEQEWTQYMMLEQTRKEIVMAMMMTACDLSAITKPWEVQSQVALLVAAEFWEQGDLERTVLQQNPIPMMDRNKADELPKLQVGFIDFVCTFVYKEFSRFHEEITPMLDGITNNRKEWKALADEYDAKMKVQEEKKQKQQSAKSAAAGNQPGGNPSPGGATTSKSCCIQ
T2 sequence (P35913 1-853 isoform P35913-2): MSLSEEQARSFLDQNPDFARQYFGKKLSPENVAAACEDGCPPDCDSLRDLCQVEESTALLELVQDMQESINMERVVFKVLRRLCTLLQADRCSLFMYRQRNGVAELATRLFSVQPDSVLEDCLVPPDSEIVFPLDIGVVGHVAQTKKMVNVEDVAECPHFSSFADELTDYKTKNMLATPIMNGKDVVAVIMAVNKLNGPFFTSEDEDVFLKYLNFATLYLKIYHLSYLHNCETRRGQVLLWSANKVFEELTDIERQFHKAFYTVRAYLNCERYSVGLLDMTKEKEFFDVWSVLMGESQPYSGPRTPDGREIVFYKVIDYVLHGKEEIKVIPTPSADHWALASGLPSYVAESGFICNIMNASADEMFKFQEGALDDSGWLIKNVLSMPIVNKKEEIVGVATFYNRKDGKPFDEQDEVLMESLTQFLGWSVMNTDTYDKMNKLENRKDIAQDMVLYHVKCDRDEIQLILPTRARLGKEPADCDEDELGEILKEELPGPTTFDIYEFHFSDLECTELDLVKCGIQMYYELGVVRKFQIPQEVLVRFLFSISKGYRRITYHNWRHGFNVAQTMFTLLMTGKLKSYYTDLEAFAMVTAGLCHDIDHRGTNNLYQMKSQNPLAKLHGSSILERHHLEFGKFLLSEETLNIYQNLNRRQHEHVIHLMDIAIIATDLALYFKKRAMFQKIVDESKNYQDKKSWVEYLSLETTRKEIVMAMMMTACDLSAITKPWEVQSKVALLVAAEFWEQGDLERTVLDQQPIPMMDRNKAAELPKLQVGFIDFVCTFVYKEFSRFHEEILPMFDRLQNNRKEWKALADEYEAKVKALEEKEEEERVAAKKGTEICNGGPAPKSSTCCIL
T10 sequence (O76083 whole entry): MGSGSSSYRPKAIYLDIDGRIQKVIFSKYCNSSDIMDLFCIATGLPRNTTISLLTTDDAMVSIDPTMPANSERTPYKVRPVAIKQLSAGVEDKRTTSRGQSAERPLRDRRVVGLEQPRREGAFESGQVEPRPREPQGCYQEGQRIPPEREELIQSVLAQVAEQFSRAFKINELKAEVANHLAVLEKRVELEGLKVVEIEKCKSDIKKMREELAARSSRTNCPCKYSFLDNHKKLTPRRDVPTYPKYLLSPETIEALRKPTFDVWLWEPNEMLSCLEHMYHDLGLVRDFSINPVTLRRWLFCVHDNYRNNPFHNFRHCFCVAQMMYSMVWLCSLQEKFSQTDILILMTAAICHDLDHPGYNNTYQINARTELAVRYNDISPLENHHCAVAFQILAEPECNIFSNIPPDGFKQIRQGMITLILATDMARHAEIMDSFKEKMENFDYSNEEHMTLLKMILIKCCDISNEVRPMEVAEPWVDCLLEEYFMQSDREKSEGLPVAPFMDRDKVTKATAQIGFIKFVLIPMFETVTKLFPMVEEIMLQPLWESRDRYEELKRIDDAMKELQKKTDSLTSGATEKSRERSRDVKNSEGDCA
T7 sequence (Q9NP56 whole entry): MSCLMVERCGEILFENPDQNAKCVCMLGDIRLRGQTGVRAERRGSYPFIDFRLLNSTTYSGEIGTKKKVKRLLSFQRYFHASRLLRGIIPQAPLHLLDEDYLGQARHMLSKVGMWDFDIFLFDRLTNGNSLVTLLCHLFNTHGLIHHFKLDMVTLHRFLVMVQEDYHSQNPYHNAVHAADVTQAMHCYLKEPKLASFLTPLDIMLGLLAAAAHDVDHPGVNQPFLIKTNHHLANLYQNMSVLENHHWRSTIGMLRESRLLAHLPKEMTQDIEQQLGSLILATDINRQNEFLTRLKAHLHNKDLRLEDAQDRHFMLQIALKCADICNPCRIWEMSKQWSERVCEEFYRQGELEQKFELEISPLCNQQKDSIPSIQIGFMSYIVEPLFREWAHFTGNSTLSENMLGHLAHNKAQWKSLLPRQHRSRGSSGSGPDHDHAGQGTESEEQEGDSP
T5 sequence (Q14432 641-1141): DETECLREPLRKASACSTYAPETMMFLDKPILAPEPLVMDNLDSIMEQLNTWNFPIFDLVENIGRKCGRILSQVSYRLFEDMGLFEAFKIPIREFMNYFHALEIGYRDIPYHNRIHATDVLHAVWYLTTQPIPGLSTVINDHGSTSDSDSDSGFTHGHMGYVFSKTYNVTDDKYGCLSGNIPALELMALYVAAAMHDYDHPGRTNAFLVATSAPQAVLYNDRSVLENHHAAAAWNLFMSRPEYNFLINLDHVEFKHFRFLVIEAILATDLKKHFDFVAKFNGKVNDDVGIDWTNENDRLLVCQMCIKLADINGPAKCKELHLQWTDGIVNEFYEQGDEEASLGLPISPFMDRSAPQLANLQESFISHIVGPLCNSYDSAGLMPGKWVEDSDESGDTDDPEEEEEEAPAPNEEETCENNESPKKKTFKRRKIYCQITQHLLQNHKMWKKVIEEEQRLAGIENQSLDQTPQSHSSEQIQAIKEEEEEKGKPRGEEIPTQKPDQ

With `O=c1c2nnc(C3(C4CC4)CC3)n2c2c(n1CC1CC1)CCCC2` [Example 1, 1-(1-cyclopropylcyclopropyl)-5-(cyclopropylmethyl)-6,7,8,9-tetrahydro-[1,2,4]triazolo[4,3-a]quinoxalin-4-one], the IC50 was 4.91 nM at PDE1B; > 10000 nM on PDE6AB (PDE6A/6B dimer); > 10000 nM at PDE10A; > 10000 nM on PDE5A; > 100000 nM at PDE3A (catalytic domain); 3.41 nM at PDE1A. Moreover, the IC50 on PDE7B was 2180 nM; on PDE2A, > 10000 nM; at PDE11A, 2970 nM; on PDE9A it was > 10000 nM; at PDE1C it was 3.05 nM; at PDE4D it was 7060 nM. For the same molecule, the IC50 on PDE8A is > 10000 nM.
